From patent US20070032502A1, “Quinazoline derivatives useful in cancer treatment” (Schering Corporation, priority 2005, published 2007)
Like-named read-outs stand apart in the source and are kept apart here.

What was measured:
MB468 = assay: Proliferation assay (Calcein AM viability, 72 hours); type: cell-based
Experimental: This assay measures the growth suppression effects of small molecules in cells with mutant p53 vs. p53 null background. It uses Calcein AM to measure cellular viability. Cells (p53 null and mutant) are harvested and plated at 5000 cells per well in a 96-well tissue culture plate. The volume of cells in growth media is 100 µl. Serial dilutions (2× concentration) of compounds are then made and transferred to the plate of cells. The volume of compounds in the growth media is 100 μL. This dilution of compound with cells gives a 1× final dilution of compound (200 μL total volume). Plates are then incubated at 37° C. for 72 hours. Media is then poured off and Calcein AM is added at the appropriate concentration and the plates are incubated in the dark for 15 minutes and read for fluorescence. […] Compounds having EC50 values of 6 uM or higher have been assigned the letter “D”. These letter rating has been used throughout in the data tables above.

[1] = target: GST-p53 DNA binding domain (aa 92-aa 312) (Homo sapiens, UniProt P04637); assay: Scintillation Proximity Assay (SPA), displacement of 3H STANDARD COMPOUND; details: for remaining activity at 2 µg/mL: 1 h
Excerpt: Most of the oncogenic mutants of the tumor suppressor protein p53 lack sequence specific DNA binding activity at physiological temperature due to conformational changes in the DNA binding domain. Small molecules and peptide which bind to the p53 DNA binding domain stabilize the conformation and restore DNA binding activity to mutant p53 protein (Science 286, 2507-2510, 1999; PNAS, 99, 937-942, 2002). Using ^3H STANDARD COMPOUND (which is ^3H of the compound #1 of the present invention; the * Carbon atom is the one labeled; structure shown below), [drawing 2234] a radio labeled small molecule which binds to p53, and the GST-p53 DNA binding domain (aa 92-aa 312), we have developed a quantitative screening assay. The assay is based on Scintillation Proximity Assay (SPA) technology, developed by Amersham Biosciences to measure molecular interactions. Briefly, the complex of GST-p53, ^3H STANDARD and Glutathione-SPA beads (Amersham Biosciences) are incubated with mixing for 1 hr at room temperature in the presence of the novel compounds to be screened. The signal is read on Microbeta. The compounds which have the ability to displace ^3H STANDARD COMPOUND are selected. Such molecules will stabilize the conformation and restore DNA binding activity to mutant p53 protein.
The above assay was used to determine the ability of the compounds of this invention to restore DNA binding activity to mutant p53 and the results for selected compounds have been given above in various tables.
A letter rating corresponding to % Residual total binding (T) @ 2 ug/mL of drug (i.e., compound of the present invention) from this assay have been assigned as follows: Compounds having % Residual T values of from 0% to less than 20% have been assigned the letter “A”. Compounds having % Residual T values of from 20% to less than 40% have been assigned the letter “B”. Compounds having % Residual T values of from 40% to less than 80% have been assigned the letter “C”. Compounds having % Residual T values of 80% or higher have been assigned the letter “D”. The exact % Residual T values @ 2 ug/mL for some illustrative compounds are shown below: […]

[2] = 2 ug/mL of drug, lower is better, read-out: % Residual T @ 2 ug/mL rating according to scintillation proximity assay (SPA)
[3] = 72 h, MB468 cells, 72 hours, read-out: PROLIFERATION ASSAY EC50 MB468
[4] = 2 ug/mL of drug, lower is better, read-out: SPA ASSAY % Residual T @ 2 ug/mL of drug (Average of)
[5] = MB468 cells, read-out: PROFILE-RATION ASSAY EC50 MB468
[6] = MB168 [sic], read-out: PROFILERATION ASSAY EC50 MB168
[7] = MB468, read-out: PROLIFERATION ASSAY EC50 MB468

Sequence of GST-p53 DNA binding domain (aa 92-aa 312) (P04637 92-312): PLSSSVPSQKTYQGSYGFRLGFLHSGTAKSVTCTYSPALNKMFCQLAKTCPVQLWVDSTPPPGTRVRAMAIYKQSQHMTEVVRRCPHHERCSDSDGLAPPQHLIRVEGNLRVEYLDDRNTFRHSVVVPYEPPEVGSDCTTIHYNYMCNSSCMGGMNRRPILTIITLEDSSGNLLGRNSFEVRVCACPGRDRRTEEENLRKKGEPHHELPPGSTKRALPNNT

CN(C)CCCNc1nc(CN2CCN(C(c3ccccc3)c3ccc(OC(F)(F)F)cc3)CC2)nc2ccccc12 (single isomer, unassigned; (+)) [11 isomer 1, (+)-N,N-DIMETHYL-N′-[2-{4-[PHENYL-(4-TRIFLUOROMETHOXYPHENYL)METHYL]-PIPERAZIN-1-YLMETHYL}QUINAZOLIN-4-YL]PROPANE-1,3-DIAMINE]
EC50 (MB468; 72 h, MB468 cells, 72 hours, read-out: EC50 rating according to the proliferation assay (MB468)): < 2 µM | remaining activity at 2 µg/mL [1, 2]: 20 to 40%

COc1ccc(/C=C/c2nc(NCCCN(C)C)c3ccccc3n2)cc1 [CP-31398, reference compound]
EC50 (MB468; [3]): 4.1 µM

CN(C)CCCNc1nc(CN2CCN(C(c3ccccc3)c3ccc(OC(F)(F)F)cc3)CC2)nc2ccccc12 (stereo not drawn) [Example 11-1]
EC50 (MB468; MB468 cells, 72 hours, read-out: PROLIFERATION ASSAY EC50 MB468): 1.4 µM | remaining activity at 2 µg/mL [1, 4]: 27.9%

CN(C)CCCNc1nc(CN2CCN(C(c3ccccc3)c3ccc(OC(F)(F)F)cc3)CC2)nc2ccccc12 (stereo not drawn) [Example 11-2]
EC50 (MB468; [3]): 1.6 µM

CN(C)CCCOc1nc(CN2CCN(C(c3ccc(Cl)cc3)c3ccc(Cl)cc3)CC2)nc2ccccc12 [Example 16, [3-(2-{4-[BIS-(4-CHLOROPHENYL)METHYL]PIPERAZIN-1-YLMETHYL}QUINAZOLIN-4-YLOXY)PROPYL]DIMETHYLAMINE]
EC50 (MB468; 72 h, read-out: EC50 rating according to the proliferation assay (MB468)): > 6 µM | remaining activity at 2 µg/mL ([1]; read-out: % Residual T @ 2 ug/mL rating according to scintillation proximity assay (SPA)): > 80%

COC(=O)[C@@H](Nc1nc(CN2CCN(C(=O)Nc3ccc(C(C)C)cc3)CC2)nc2ccccc12)C(C)C [Example 20-29]
EC50 (MB468; MB468 cells, read-out: PROLIFERATION ASSAY EC50 MB468): 4 to 6 µM | SPA Assay (% residual T @ 2 ug/mL of drug) ([1]; 2 ug/mL of drug): B (Compounds having % Residual T values of from 20% to less than 40% have been assigned the letter “B”) | remaining activity at 2 µg/mL [1, 4]: 39.5%

CN(C)CCCNc1nc(CN2CCN(Cc3cccc4cc[nH]c34)CC2)nc2ccccc12 [Example 25-29]
EC50 (MB468; [5]): 4 to 6 µM | SPA Assay (% residual T @ 2 ug/mL of drug) ([1]; 2 ug/mL of drug): B (Compounds having % Residual T values of from 20% to less than 40% have been assigned the letter “B”) | remaining activity at 2 µg/mL [1, 4]: 37.9%

CCC(C)(C)C1CCC(N2CCN(Cc3nc(NCCCN(C)C)c4ccccc4n3)CC2)C1 (stereo not drawn) [Example 25-73]
EC50 (MB468; [5]): 4 to 6 µM | SPA Assay (% residual T @ 2 ug/mL of drug) ([1]; 2 ug/mL of drug): C (Compounds having % Residual T values of from 40% to less than 80% have been assigned the letter “C”)

CCC(C)(C)C1CCC(N2CCN(Cc3nc(NCCCN(C)C)c4ccccc4n3)CC2)CC1 (stereo not drawn) [Example 25-90]
EC50 (MB468; [3]): 2 µM | EC50 (MB468; [5]): 2 to 4 µM | SPA Assay (% residual T @ 2 ug/mL of drug) ([1]; 2 ug/mL of drug): B (Compounds having % Residual T values of from 20% to less than 40% have been assigned the letter “B”) | remaining activity at 2 µg/mL [1, 4]: 38.1%

Cc1cc(C)c(NC(=O)N2CCN(Cc3nc(NCCCN(C)C)c4ccccc4n3)CC2)c(C)c1 [Example 28-4]
EC50 (MB468; [6]): 4 to 6 µM | SPA ASSAY (% Residual T @ 2 ug/mL of drug (average of)) ([1]; 2 ug/mL of drug): C (Compounds having % Residual T values of from 40% to less than 80% have been assigned the letter “C”)

CN(C)CCCNc1nc(CN2CCN(C(=O)Nc3ccc(C#N)cc3)CC2)nc2ccccc12 [Example 28-13]
EC50 (MB468; [6]): > 6 µM | SPA ASSAY (% Residual T @ 2 ug/mL of drug (average of)) ([1]; 2 ug/mL of drug): C (Compounds having % Residual T values of from 40% to less than 80% have been assigned the letter “C”)

COc1ccc(NC(=O)N2CCN(Cc3nc(NCCCN(C)C)c4ccccc4n3)CC2)cc1 [Example 28-20]
EC50 (MB468; [6]): > 6 µM | SPA ASSAY (% Residual T @ 2 ug/mL of drug (average of)) ([1]; 2 ug/mL of drug): B (Compounds having % Residual T values of from 20% to less than 40% have been assigned the letter “B”) | remaining activity at 2 µg/mL [1, 4]: 38%

CN(C)CCCNc1nc(CN2CCN(C(=O)Nc3ccc(Cl)c(Cl)c3)CC2)nc2ccccc12 [Example 28-39]
EC50 (MB468; [6]): 4 to 6 µM | SPA ASSAY (% Residual T @ 2 ug/mL of drug (average of)) ([1]; 2 ug/mL of drug): B (Compounds having % Residual T values of from 20% to less than 40% have been assigned the letter “B”) | remaining activity at 2 µg/mL [1, 4]: 29.9%

Clc1ccc(C(c2ccc(Cl)cc2)N2CCN(Cc3nc(N4CCOCC4)c4ccccc4n3)CC2)cc1 [Example 30-3]
EC50 (MB468; [7]): > 6 µM | remaining activity at 2 µg/mL ([1]; read-out: SPA ASSAY (% residual T @ 2 ug/mL of drug)): > 80%

Clc1ccc(C(c2ccc(Cl)cc2)N2CCN(Cc3nc(N4CCCCCC4)c4ccccc4n3)CC2)cc1 [Example 30-5]
EC50 (MB468; [7]): 2 to 4 µM

CN(Cc1ccccc1)c1nc(CN2CCN(C(c3ccc(Cl)cc3)c3ccc(Cl)cc3)CC2)nc2ccccc12 [Example 30-11]
EC50 (MB468; [7]): > 6 µM

Clc1ccc(C(c2ccc(Cl)cc2)N2CCN(Cc3nc(N4CCc5ccccc5C4)c4ccccc4n3)CC2)cc1 [Example 30-12]
EC50 (MB468; [7]): > 6 µM

Clc1ccc(C(c2ccc(Cl)cc2)N2CCN(Cc3nc(N4CCN(c5ccccc5)CC4)c4ccccc4n3)CC2)cc1 [Example 30-15]
EC50 (MB468; [7]): 4 to 6 µM

Clc1ccc(C(c2ccc(Cl)cc2)N2CCN(Cc3nc(N4CCN(c5ncccn5)CC4)c4ccccc4n3)CC2)cc1 [Example 30-17]
EC50 (MB468; [7]): > 6 µM

CN(CCC1C=Nc2ccccc21)c1nc(CN2CCN(C(c3ccc(Cl)cc3)c3ccc(Cl)cc3)CC2)nc2ccccc12 (stereo not drawn) [Example 30-18]
EC50 (MB468; [7]): 2 to 4 µM

Clc1ccc(C(c2ccc(Cl)cc2)N2CCN(Cc3nc(N4CCC(Cc5ccccc5)CC4)c4ccccc4n3)CC2)cc1 [Example 30-19]
EC50 (MB468; [7]): 4 to 6 µM

Clc1ccc(C(c2ccc(Cl)cc2)N2CCN(Cc3nc(N4CCN(Cc5ccccc5)CC4)c4ccccc4n3)CC2)cc1 [Example 30-20]
EC50 (MB468; [7]): 2 to 4 µM

CN(C)CC[C@H](Nc1nc(CN2CCN(C(c3ccc(Cl)cc3)c3ccc(Cl)cc3)CC2)nc2ccccc12)C(N)=O [Example 43, 2(S)-(−)-2-(2-{4-[BIS-(4-CHLOROPHENYL)METHYL]PIPERAZIN-1-YLMETHYL}QUINAZOLIN-4-YLAMINO)-4-DIMETHYLAMINOBUTYRAMIDE]
remaining activity at 2 µg/mL [1, 2]: 40 to 80%

CCOC(=O)[C@H](CCN(C)C)Nc1nc(CN2CCN(C(c3ccc(Cl)cc3)c3ccc(Cl)cc3)CC2)nc2ccccc12 [Example 44, 2(S)-(+)-2-(2-{4-[bis-(4-chlorophenyl)methyl]piperazin-1-ylmethyl}quinazoline-4-ylamino)-4-dimethylaminobutyric acid ethyl ester]
remaining activity at 2 µg/mL [1, 2]: 40 to 80%

CC(C)COC(=O)[C@H](CCCN(C)C)Nc1nc(CN2CCN(C(c3ccc(Cl)cc3)c3ccc(Cl)cc3)CC2)nc2ccccc12 [Example 45, 2(S)-(−)-2-(2-{4-[BIS-(4-CHLOROPHENYL)METHYL]PIPERAZIN-1-YLMETHYL}QUINAZOLIN-4-YLAMINO)-5-DIMETHYLAMINOPENTANOIC ACID ISOBUTYL ESTER]
remaining activity at 2 µg/mL [1, 2]: > 80%

CN(C)CCC[C@H](Nc1nc(CN2CCN(C(c3ccc(Cl)cc3)c3ccc(Cl)cc3)CC2)nc2ccccc12)C(N)=O [Example 46, 2(S)-(+)-2-(2-{4-[BIS-(4-CHLOROPHENYL)METHYL]PIPERAZIN-1-YLMETHYL}QUINAZOLIN-4-YLAMINO)-5-DIMETHYLAMINOPENTANAMIDE]
remaining activity at 2 µg/mL [1, 2]: > 80%

CN(C)CCCC[C@H](Nc1nc(CN2CCN(C(c3ccc(Cl)cc3)c3ccc(Cl)cc3)CC2)nc2ccccc12)C(N)=O [Example 47, 2(S)-(+)-2-(2-{4-[BIS-(4-CHLOROPHENYL)METHYL]PIPERAZIN-1-YLMETHYL}QUINAZOLIN-4-YLAMINO)-6-DIMETHYLAMINOHEXANAMIDE]
remaining activity at 2 µg/mL [1, 2]: 40 to 80%
